Test results as given in patent US12122741B2, “Therapeutic phenethylamine compositions and methods of use” (CYBIN IRL LIMITED, priority 2020, dated 2024).

Assays:
[1] = cited from earlier work
[2] = biological target: T1, serotonin 5-HT2A receptor (Mus musculus, UniProt P35363); experiment: head-twitch response (HTR); type: in vivo, C57Bl/6J mice; details: for HTR compared to DOI (positive control, 1 mg/kg) / HTR compared to vehicle: HTRs counted for 15 minutes, adult male mice; for model fit of data (GraphPad Prism 9): FIG. 16 legend
T1 construct: tissue Jackson Laboratory; host or cells: living C57Bl/6J mice (whole animal, behavioural read-out)
Description: The HTR assay was performed in adult, male C57Bl/6J mice, procured from the Jackson Laboratory (Bar Harbor, Maine), as previously described (Canal, C. E., and Morgan, D., 2012, Head-twitch response in rodents induced by the hallucinogen 2,5-dimethoxy-4-iodoamphetamine: a comprehensive history, a re-evaluation of mechanisms, and its utility as a model, Drug Test Anal 4, 556-576; Saraf, T. S., Felsing, D. E., Armstrong, J. L., Booth, R. G., and Canal, C. E., 2021, Evaluation of lorcaserin as an anticonvulsant in juvenile Fmr1 knockout mice, Epilepsy Res 175, 106677). Mice were housed in standard laboratory cages with ad libitum access to food and water, and were acclimated to the vivarium for at least one week prior to testing in a procedure room. On the day of testing, mice were acclimated to the procedure room in their home cages for ≥60 mi before administration of test compounds. Mice were injected subcutaneously, placed immediately thereafter in a clear, polycarbonate box (46×20×20 cm), and HTRs were counted for 15 consecutive minutes, using hand-held tally counters, by two trained observers who were blind to treatment.

[3] = biological target: T2, human serotonin 5-HT2A receptor (Homo sapiens, UniProt P28223); experiment: radioligand competition binding, [3H]Ketanserin; details: HEK293 membranes, [3H]Ketanserin ~1.6 nM
T2 construct: host or cells: HEK293 (ATCC CRL-1573), transient transfection, membrane preparation
Description: Radioligand competition binding was performed as previously described (Saraf, T. S., Felsing, D. E., Armstrong, J. L., Booth, R. G., and Canal, C. E., 2021, Evaluation of lorcaserin as an anticonvulsant in juvenile Fmr1 knockout mice, Epilepsy Res 175, 106677), with minor modifications. Plasmids encoding human serotonin 5-HT2A receptor cDNA were procured from the cDNA Resource Center. Human embryonic kidney cells (HEK293, ATCC CRL-1573) were grown in a cell incubator in 100 mm dishes with antibiotic-free Dulbecco's modified Eagle's medium containing 10% fetal bovine serum. Cells were transfected at ˜85% confluency with […] cDNA using TransIT-2020 reagent (Mirus Bio, Madison, Wisconsin). After approximately 48 hours, cell membrane was collected via centrifugation. For all experiments, serotonin (5-HT) hydrochloride was used as a positive control, and mianserin hydrochloride (10 μM) was used to define non-specific binding. Each cell membrane homogenate expressing 5-HT2A receptors was incubated in 96-well plates with [^3H]Ketanserin (PerkinElmer, Waltham, Massachusetts), ˜1.6 nM (its Kd at human 5-HT2A receptors), in the absence or presence of test compounds in a buffer. Following equilibration, each sample was filtered rapidly under vacuum through fiberglass filters presoaked in a buffer and rinsed several times with an ice-cold buffer using a cell harvester. Filters were soaked with scintillation fluid, and counts per minute were detected using photodetectors. IC50 values were computed using nonlinear, least squares regression analyses and then converted to Ki values using the Cheng-Prusoff equation (GraphPad Prism 9.0, San Diego, California).

[4] = in vitro liver metabolism (metabolic stability); type: in vitro ADME; details: rat liver microsomes, NADPH regenerating system, 0 to 60 min
Description: In Vitro Liver Metabolism and Kinetic Deuterium Isotope Effects Compounds (10 μl of 2 μM solution) are incubated in 200 μl of medium that contains […] rat liver microsomes, NADPH regenerating system (1 mM NADP, 1 unit/ml of isocitrate dehydrogenase, 5 mM isocitric acid, 5 mM magnesium chloride), and 25 mM of phosphate buffer (pH 7.4). The reaction is terminated at different time points (0 to 60 min) by the addition of 300 μl of acetonitrile. For the analyses of products, the precipitated salts and proteins are spun out on a centrifuge, the residual solution diluted with 300 μl of water and injected into the LC/MS (Agilent 1200 system interfaced with an ABS Sciex 4000 QTRAP LC/MS/MS Mass Spectrometer). The metabolic stability may be estimated by evaluating the rate of disappearance of the main parent peak.

T2 sequence (P28223 whole entry): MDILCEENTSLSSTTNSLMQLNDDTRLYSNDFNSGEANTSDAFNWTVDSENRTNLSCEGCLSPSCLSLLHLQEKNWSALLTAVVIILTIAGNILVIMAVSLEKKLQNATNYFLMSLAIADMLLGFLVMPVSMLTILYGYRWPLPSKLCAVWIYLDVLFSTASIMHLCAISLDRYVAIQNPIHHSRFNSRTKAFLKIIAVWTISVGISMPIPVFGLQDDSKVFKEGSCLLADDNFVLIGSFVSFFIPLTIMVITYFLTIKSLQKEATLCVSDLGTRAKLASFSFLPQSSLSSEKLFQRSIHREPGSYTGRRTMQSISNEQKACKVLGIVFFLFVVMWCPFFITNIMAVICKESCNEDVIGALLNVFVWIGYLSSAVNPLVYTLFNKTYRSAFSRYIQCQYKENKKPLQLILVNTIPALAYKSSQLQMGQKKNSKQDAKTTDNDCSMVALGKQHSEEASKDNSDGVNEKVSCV
T1 sequence (P35363 whole entry): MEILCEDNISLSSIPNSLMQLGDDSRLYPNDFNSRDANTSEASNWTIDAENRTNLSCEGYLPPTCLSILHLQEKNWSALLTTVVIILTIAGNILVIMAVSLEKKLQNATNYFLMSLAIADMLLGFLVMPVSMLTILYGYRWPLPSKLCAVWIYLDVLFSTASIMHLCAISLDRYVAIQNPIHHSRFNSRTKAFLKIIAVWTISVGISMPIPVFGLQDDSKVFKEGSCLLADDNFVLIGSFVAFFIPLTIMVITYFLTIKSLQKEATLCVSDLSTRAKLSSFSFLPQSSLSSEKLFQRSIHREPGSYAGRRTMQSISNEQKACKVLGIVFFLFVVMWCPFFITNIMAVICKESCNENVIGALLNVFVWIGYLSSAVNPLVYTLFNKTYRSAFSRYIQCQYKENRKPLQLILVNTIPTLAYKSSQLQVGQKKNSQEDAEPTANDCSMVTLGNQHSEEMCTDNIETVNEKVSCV

Structure (SMILES)	activity after oral administration [1]	HTR compared to DOI (positive control, 1 mg/kg) ([2]; 3 mg/kg, subcutaneous)	HTR compared to vehicle ([2]; 3 mg/kg, subcutaneous)	model fit of data (GraphPad Prism 9) [2]	activity at serotonin 5-HT2A receptors (FIG. 17) [3]	difference in affinity between deuterated and non-deuterated compounds [3]	effect of deuteration of the 2,5-methoxy groups on HTR (versus Compound I-1) ([2]; 3 mg/kg, subcutaneous, 15 minutes)	half life longer than Reference Compound 2 (2C—B) [4] [%]
COc1cc(OC)c(OC)cc1CCN [2C—O]	inactive							
COc1cc(SC(F)(F)F)c(OC)cc1CCN [Compound I-1, 2-(2,5-dimethoxy-4-((trifluoromethyl)thio)phenyl)ethan-1-amine]		not statistically different from DOI	statistically different from vehicle	fit best to a two-site model	pronounced agonists	no significant differences in affinity		
[2H]C([2H])([2H])Oc1cc(SC(F)(F)F)c(OC([2H])([2H])[2H])cc1CCN [Compound II-10, 2-(2,5-bis(methoxy-d3)-4-((trifluoromethyl)thio)phenyl)ethan-1-amine]		not statistically different from DOI	statistically different from vehicle	fit best to a two-site model	pronounced agonists	no significant differences in affinity	increased the HTR response	
[2H]C([2H])([2H])Oc1cc(C([2H])([2H])C([2H])([2H])N)c(OC([2H])([2H])[2H])cc1Br [Compound II-14, 2-(4-bromo-2,5-bis(methoxy-d3)phenyl)ethan-1,1,2,2-d4-1-amine]								50
